The values below come from PubChem BioAssay AID977607 (Broad Institute, 2014).

Several values for one entry are separate records, joined by “and”; a condition that tells them apart may be missing. Equal entries are not always repeated. Activity calls are given as the source filed them.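 Rule for the calls: active = curve reaches 40% activation over neutral controls at an AC40 no higher than the top valid tested concentration; inconclusive = no clear call, values can overlap the other calls; inactive = signal moving opposite to the expected increase, and the rest.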

For this assay, the system named is INS-1E GLuc insulin secretion reporter, luminescence, 2-3 h. Nature of the assay: GLuc-reported insulin release enhancers, glucose-stimulated beta cells – cell-based, INS-1E, Gaussia luciferase, luminescence, cherry-pick, set 2, dose response (AID 977607).
For the compound `O=C1CC(Sc2nnc(-c3ccccc3)o2)C(=O)N1c1ccccc1` (stereo not drawn), the AC40 was 12.1 µM. On to `COc1ccc(-c2ccc(C3[C@@H]4CN(Cc5cccc(OC)c5)C[C@H]3N4)cc2)cc1` (stereo partly drawn), for which the AC40 is 2.47 µM. With `C=CCn1cc(Cl)cc(C(=O)Nc2ccccc2)c1=O`, the AC40 was 19.7 µM. In the case of `COc1ccc(C(=O)Nc2ccccc2C(=O)Nc2ccncc2)cc1`, the AC40 was 0.413 µM. Consider `O=C(Nc1ccc(C(F)(F)F)cc1)N1[C@@H]2CNC[C@H]1C2c1ccc(/C=C/c2ccccc2)cc1` (stereo partly drawn), for which the AC40 was 9.53 µM. To `Cc1ccc2oc(-c3cccc(NC(=O)Cc4cccs4)c3)nc2c1` belongs 5.62 µM; to `CCOC(=O)c1nc(SC)n(C)c1C(=O)OCC`, 4.49 µM; to `Cc1cc2c(cc1C)CSC(c1c(O)ccc3ccccc13)SC2`, 10.9 µM. Turning to `COc1ccc(/C=N/NC(=O)CCOc2ccccc2C)cc1OC`, the AC40 is 7.01 µM.

With `N#Cc1sc2nc3c(c(-c4cccnc4)c2c1N)CCC3`, the AC40 was 26.5 µM. `COc1cc(CN2CCc3ccccc3C2)ccc1O`: the AC40 is 6.75 µM. The value for `CNc1nc(-c2ccccc2)[n+](-c2ccc(C)cc2)s1` was 2.16 µM. Take `CCC(=O)Nc1ccc(Cl)c(NC(=S)NC(=O)COc2ccc(Cl)cc2)c1`: the AC40 is 7.71 µM. In the case of `CC(C)C(Cl)=NOC(=O)Nc1ccc(S(N)(=O)=O)cc1`, the AC40 was 10.2 µM. Regarding `CC1(Cc2ccc(C(F)(F)F)o2)C(=O)Nc2ccc(-c3cccc(C(F)(F)F)c3)cc21` (stereo not drawn), the AC40 was 8.84 µM. The value for `COC(=O)c1ccc2c(=O)[nH]c(CSc3nc(-c4ccc(F)cc4)cs3)nc2c1` was 5.86 µM; that for `Fc1ccccc1/C=N/n1c(C2CCCCC2)n[nH]c1=S` was 18.5 µM.

For `COc1cc2c(cc1OC)-c1cc(Nc3ccccc3C)nc(=O)n1CC2`, the AC40 was 0.408 µM. Take `Cc1ccccc1-n1sc2cc(F)ccc2c1=O`: the AC40 was 1.56 µM. Regarding `O=C(N/N=C\c1ccc(CNS(=O)(=O)c2ccc(Cl)cc2)o1)C(=O)Nc1ccc(Oc2ccccc2)cc1`, the AC40 was 13.9 µM. With `O=C(NN=Cc1ccccc1Cl)c1cccc2ccccc12`, the AC40 was 11.6 µM.

Take `O=C(NCC1OCCc2ccccc21)c1ccc(NC(=O)c2cccc(Br)c2)cc1` (stereo not drawn): the AC40 was 14 µM. Turning to `O=c1[nH][nH]c2c1C(c1ccc(Cl)c(Cl)c1)OC(CCc1ccccc1)C2` (stereo not drawn), the AC40 was 16.9 µM. `COC(=O)c1ccc(C(=O)Nc2cc(Cl)ccc2Cl)cc1NC(=O)c1ccccc1C`: the AC40 was 2.43 µM.

For `COc1ccc(C(CCNCc2ccc(OC(C)C)cc2)C(C)C)cc1` (stereo not drawn), the AC40 was 21.7 µM.

With `CS(=O)(=O)c1ccc2nc(NC(=O)Nc3ccc(Cl)c(Cl)c3)sc2c1`, the AC40 was 4.78 µM. The value for `COc1ccc(C(=O)C2CCCN(C(=O)c3n[nH]c4c3CCCC4)C2)cc1OC` (stereo not drawn) was 3.89 µM.

For `Cc1cc(C)cc(OCCCN2CCC(C(O)(c3ccccc3)c3ccccc3)CC2)c1`, the AC40 was 13 µM.

Turning to `COc1ccc(Cc2nnc(NC(=O)Cc3cccs3)s2)cc1OC`, the AC40 is 0.234 µM. On to `O=C(O)c1ccc(-n2nc(-c3ccccc3)c3ccccc3c2=O)cc1`, for which the AC40 was > 35 µM (inactive).

As for `N#Cc1c(-c2cccc(Br)c2)cc(-c2cccnc2)nc1N`, the AC40 was 5.82 µM.

For the compound `COc1ccc(C2CNC(=O)C2)cc1OC1CCCC1` (stereo not drawn), the AC40 is 1.98 µM. To `CC(=O)Oc1ccc(Cl)cc1/C=C/c1ccc2ccccc2n1` belongs 24.9 µM.

As for `COc1ccccc1CCn1cnc(-c2ccc(F)cc2)c1CC(C)C`, the AC40 is 7.14 µM. The value for `N#Cc1nccnc1S(=O)(=O)c1cccs1` was 0.467 µM. Take `C[C@@H]1CN([C@H](C)CO)S(=O)(=O)c2ccc(-c3ccc(F)cc3)cc2O[C@H]1CN(C)Cc1cccc(F)c1`: the AC40 is 15.5 µM. As for `Cc1ccc2nc(-c3ccc(NC(=O)COC(=O)c4ccco4)cc3)sc2c1`, the AC40 was 4.42 µM.

In the case of `CS(=O)(=O)c1cnc(-c2ccccc2)nc1Oc1ccc(F)cc1`, the AC40 was 15.1 µM. As to `COc1ccc(CNCC(O)COc2ccc(C(C)(C)c3ccccc3)cc2)cc1` (stereo not drawn), the AC40 was 6.55 µM.

For the compound `Cc1nc2c(=O)n(C)c(=O)n(C)c2nc1Cl`, the AC40 was 25.8 µM. `FC(F)(F)c1cc(CCN2CCNC[C@H]2Cc2cccc3ccccc23)cc(C(F)(F)F)c1`: the AC40 is 7.24 µM. Turning to `Oc1ccccc1-c1cc(C(F)(F)C(F)F)nc(-c2ccccc2)n1`, the AC40 is 7.7 µM. Turning to `Cc1ccc(-c2nnc3sc(-c4ccncc4)nn23)cc1`, the AC40 is 13.5 µM. Turning to `COC(=O)C1=C(C)N(Cc2cccc(C(F)(F)F)c2)C(=NCc2ccc(OC)cc2)NC1c1ccc(F)cc1` (stereo not drawn), the AC40 is 15.5 µM. For the compound `Cc1ccc(C(C)C)c(OCCNCCc2ccccc2)c1`, the AC40 is 15 µM. For `CNc1nc(Sc2ccccc2)cc(C(F)(F)F)n1`, the AC40 is > 35 µM (inactive). As for `Cc1ccccc1-c1ccc(C2[C@@H]3CN(C(=O)Nc4cccc(F)c4)C[C@H]2N3)cc1` (stereo partly drawn), the AC40 is 8.64 µM.

For the compound `COc1ccc(-c2nc(CCl)cs2)cc1OC`, the AC40 is > 35 µM (inactive). Turning to `O=C(N/N=C/c1ccc(Cl)cc1Cl)Nc1ccccc1`, the AC40 is 7.74 µM.

As for `Cc1ccc(CN(C(=O)c2cccs2)C2CCS(=O)(=O)C2)cc1` (stereo not drawn), the AC40 is 19.7 µM. Regarding `C/C(=N\NC(=O)c1cccc(Br)c1)c1ccc(Br)cc1`, the AC40 was 16.6 µM.

On to `COc1ccc(/C=N/N(C(C)=O)c2nc(-c3ccc(C)cc3)cs2)cc1`, for which the AC40 was 0.895 µM.

Regarding `CN(C)CCNC(=O)c1cc2c(s1)-c1ccc(Cl)cc1SC2`, the AC40 is 6.54 µM. `CS(=O)(=O)N1CCN(c2ccc(NC(=O)c3ccc(-c4ccc(Cl)cc4)o3)cc2)CC1`: the AC40 was 9.25 µM. In the case of `COc1ccc(CN(C)C(=O)Cn2cc(C)c(=O)[nH]c2=O)cc1OC`, the AC40 was > 35 µM (inactive). With `CCSc1nnc(NC(=O)c2csc3c2CCCC3)s1`, the AC40 was 2.22 µM. In the case of `N#Cc1sc2nc(N3CCCCC3)c3c(c2c1N)CCCC3`, the AC40 was 28.6 µM. On to `COc1ccc(S(=O)(=O)N2CCc3ccccc3C2)cc1OC`, for which the AC40 was 28.9 µM. Regarding `Cc1cccc(-c2ccc(C3[C@@H]4CN(C(=O)Nc5ccc(C(F)(F)F)cc5)C[C@H]3N4)cc2)c1` (stereo partly drawn), the AC40 is 1.09 µM. As for `NC(N)=N/N=C/c1ccc(OCc2ccccc2Cl)cc1`, the AC40 is 16.4 µM. On to `CCOC(=O)c1oc2cc(O)cc(C)c2c1C`, for which the AC40 was 15.1 µM.

Take `O=C(Nc1nc2ccccc2n1Cc1ccc(Cl)cc1)c1ccco1`: the AC40 was 7.18 µM.

With `CCCCCCCCN1C(=O)[C@@H](CC(=O)N2CCN(C(=O)c3ccco3)CC2)C[C@@]2(C(=O)OC)C1=C[C@H](C1CCCC1)O[C@@H]2C`, the AC40 is 12 µM. Consider `CCOc1ncccc1C(=O)Nc1ccc(S(=O)(=O)Nc2nc(C)cc(C)n2)cc1`, for which the AC40 is 33.2 µM.

As to `CCCCc1c(-c2ccccc2OC)ncn1CCc1ccccc1`, the AC40 is 16.7 µM.

Regarding `COc1ccc(C2=NN(C(=O)c3ccco3)C(c3cccs3)C2)cc1OC` (stereo not drawn), the AC40 was 1.94 µM. To `O=C(COc1ccccc1)Nc1sc2c(c1C(=O)NCc1cccnc1)CCCC2` belongs 13.1 µM. With `COc1ccc(/C=N/NC(=O)Cn2nnc3ccccc32)cc1OC`, the AC40 was 24.4 µM. Regarding `C=CCn1c(-c2csc(-c3ccc(OC)c(OC)c3)n2)n[nH]c1=S`, the AC40 is 1.01 µM. `O=C(Cn1c(COc2ccccc2)nc2ccccc21)Nc1cc(Cl)cc(Cl)c1`: the AC40 was 10.9 µM. On to `Cc1ccc2nc(Cl)nc(-c3ccccc3)c2c1`, for which the AC40 is 12.2 µM. As for `CC(=O)N(C1CC(C)C(C#N)(C#N)C1(C#N)C#N)N(C)C` (stereo not drawn), the AC40 was 1.85 µM.

For `COc1cccc(OCc2nc3c4cnn(-c5ccccc5)c4ncn3n2)c1`, the AC40 is 8.5 µM. As for `COc1cccc(-c2sc3ccccc3c2-c2ccc(OCCN(C)C)cc2)c1`, the AC40 was 3.37 µM. In the case of `COc1cc2c(cc1OC)-c1cc(Nc3ccccc3Br)nc(=O)n1CC2`, the AC40 was 0.366 µM. As to `COc1cc(CNCCc2ccccc2)cc(Cl)c1OCc1ccccc1`, the AC40 is 9.79 µM. For `O=c1[nH]cnc2nc(-c3ccc(N(CCCl)CCCl)cc3)[nH]c12`, the AC40 was 5.89 µM.

For the compound `CCOc1cc(N2CCOCC2)c(OCC)cc1NC(=O)COC(=O)c1cc2ccccc2cc1O`, the AC40 was 10.3 µM. Consider `Nc1nc(N)c2cc(Sc3ccc(Cl)cc3)ccc2n1`, for which the AC40 is 7.16 µM. With `Cc1cc(C)c2nc(N(CCCN(C)C)C(=O)c3ccc4c(c3)CCCC4)sc2c1`, the AC40 is 6.21 µM. For `COC(=O)c1sccc1NC(=O)COc1ccc(Cl)cc1Cl`, the AC40 is 9.33 µM. For `CCOC(=O)c1csc(-c2ccc(OC)c(OC)c2)n1`, the AC40 was 2.17 µM.

Consider `Cc1ccccc1Cn1ccc(NC(=O)c2cc3nc(-c4ccco4)cc(C(F)(F)F)n3n2)n1`, for which the AC40 was 4.72 µM.

`COc1cc2c(cc1OC)-c1cc(N3CCc4ccccc43)nc(=O)n1CC2`: the AC40 was 15.6 µM. Regarding `OC(c1ccccc1)(c1ccccc1)C1CCN(CCCOc2cccc(OC(F)(F)F)c2)CC1`, the AC40 is 5.24 µM. The value for `CC(C)CC#Cc1ccc2c(c1)O[C@@H](CN(C)Cc1cccc(F)c1)[C@H](C)CN([C@@H](C)CO)S2(=O)=O` was 7.13 µM; that for `COc1ccc(OC)c(NC(=O)c2cc3c(Cl)nc4ccccc4c3s2)c1` was 10.2 µM.

On to `Fc1ccc(-c2ccc(C3[C@@H]4CN(Cc5cccc(F)c5)C[C@H]3N4)cc2)cc1` (stereo partly drawn), for which the AC40 is 5.48 µM. Regarding `CCOc1nc(NC(=O)NS(=O)(=O)c2cccc(Cl)c2)nc(-c2ccccc2)n1`, the AC40 was > 35 µM (inactive). On to `Cc1ccc(-c2ccc(C3[C@@H]4CN(Cc5cccc(F)c5)C[C@H]3N4)cc2)cc1` (stereo partly drawn), for which the AC40 is 3.07 µM.

For `CNc1ccc2ncc(-c3ccc(OC)c(OC)c3)n2n1`, the AC40 is 7.77 µM.

For the compound `C(=C\c1ccc(C2[C@@H]3CN(Cc4nccs4)C[C@H]2N3)cc1)/c1ccccc1` (stereo partly drawn), the AC40 is 17 µM.

In the case of `CCc1ccc(OCC(=O)NC(=S)Nc2ccc(F)cc2)c(Br)c1`, the AC40 is 10 µM.

Take `NC1=NC[C@H](c2ccccc2)N1CCCCC1CCCCC1`: the AC40 was 28.8 µM. As to `COc1ccccc1C(=O)Nc1c2c(nn1-c1cccc(C)c1C)CS(=O)(=O)C2`, the AC40 was 7.77 µM.

Consider `Cc1ccc(-c2ccc(C3[C@@H]4CN(C(=O)Nc5ccc(C(F)(F)F)cc5)C[C@H]3N4)cc2)cc1` (stereo partly drawn), for which the AC40 was 4.06 µM and 2.82 µM. With `COc1ccc(C(=O)NC(=S)Nc2ccc3c4c(cccc24)CC3)cc1OC`, the AC40 is 7.84 µM. Turning to `COc1ccc(-c2ccncc2)cc1OC`, the AC40 was 13 µM.
